Here are results for 7 compounds from US12180207B2 (ARRAY BIOPHARMA INC., priority 2018, dated 2024).

For orientation: pIC50 means the IC50 on a negative log10 scale, so that one unit is a factor of ten.

The target of experiment [1] is recombinant human FGFR1 catalytic domain (amino acids 308-731) (Homo sapiens (Human), UniProt P11362). Description: FGFR1 enzyme activity assay (LanthaScreen TR-FRET). In kind it is biochemical. The conditions noted are these: 20 min incubation at 22° C., average of multiple determinations if made, read-out: FGFR1 Enz FRET IC50. The procedure, abridged:
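His-tagged FGFR1 kinase domain with 100 nM Alexa Fluor 647-poly-GT peptide and ATP in pH 7.5 HEPES/MgCl2 buffer with 2% DMSO, 20 min at 22 °C. Quenched with EDTA plus 2 nM Eu-PY20 antibody and read after 60 min. IC50 comes from a 4-parameter fit of percent of control.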

Experiment [2] concerns the target FGFR3 (SEQ ID NO: 5, amino acids 449-759) (Homo sapiens (Human), UniProt P22607). Description: LC/MS FGFR3 kobs assay (covalent protein modification). In kind it is binding. The conditions noted are these: 500 nM FGFR3, 3 μM compound. The procedure, abridged:
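Samples are acid-quenched at set times and read by Q-TOF mass spectrometry. kobs is obtained by fitting DMSO-normalized percent unmodified protein to an exponential decay model.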

The target of experiment [3] is phosphorylated FGFR3 (SEQ ID NO: 5, amino acids 449 to 759) (Homo sapiens (Human), UniProt P22607). Description: FGFR enzyme binding assay (HTRF tracer displacement), FGFR3. The settings on record: 5 nM phosphorylated FGFR3, average of multiple determinations if made. A digest of the protocol: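 Kinase and tracer were incubated with compound for 60 minutes at 22° C. Tracer displacement was then measured by HTRF, and results were expressed as POC with 1 μM control inhibitor defining full displacement.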
(In general: TR-FRET usually uses a lanthanide donor and a delayed reading to cut background.)

Experiment [4] addresses HEK-293 cells transfected with dox-inducible human wild type FGFR2 (Homo sapiens (Human), UniProt P21802). Description: FGFR2 pFGFR cell assay (ELISA). It counts as cell-based. The settings on record: HEK-293 dox-inducible FGFR2, 1 hour compound, 30 ng/ml FGF-acidic. A digest of the protocol: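 Doxycycline-induced (1 μg/ml) cells preincubated with compound (1:3 serial dilutions, top final 5 μM) for 1 h at 37 °C, then stimulated with 30 ng/ml FGF-acidic for 5 min. Lysates assayed by ELISA capturing total FGFR2 and detecting phosphotyrosine (OD 450 nm). POC relative to no-compound and control-compound wells; IC50 from 4-parameter logistic fit.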
A general note: An ELISA detects its analyte on a solid surface through an enzyme-linked reagent.

For experiment [5], the target named is recombinant human FGFR3 (amino acids R397-T806) (Homo sapiens (Human), UniProt P22607). Description: FGFR3 enzyme activity assay (LanthaScreen TR-FRET). In kind it is biochemical. The conditions noted are these: 25 μM ATP, 10 min incubation at 22° C., average of multiple determinations if made, read-out: FGFR3 Enz FRET IC50. A digest of the protocol:
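GST-HIS6-tagged human FGFR3 (R397-T806) was reacted with 100 nM Alexa Fluor 647-Poly-GT substrate and 25 μM ATP plus compound in HEPES/MgCl2/Triton buffer, pH 7.5, 2% DMSO, for 10 min at 22 °C.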

Molecules are shown by their SMILES. pIC50: −log10 of the molar value.

Sequence of recombinant human FGFR1 catalytic domain (amino acids 308-731) (P11362 other isoform, or with tags, fused parts or gaps): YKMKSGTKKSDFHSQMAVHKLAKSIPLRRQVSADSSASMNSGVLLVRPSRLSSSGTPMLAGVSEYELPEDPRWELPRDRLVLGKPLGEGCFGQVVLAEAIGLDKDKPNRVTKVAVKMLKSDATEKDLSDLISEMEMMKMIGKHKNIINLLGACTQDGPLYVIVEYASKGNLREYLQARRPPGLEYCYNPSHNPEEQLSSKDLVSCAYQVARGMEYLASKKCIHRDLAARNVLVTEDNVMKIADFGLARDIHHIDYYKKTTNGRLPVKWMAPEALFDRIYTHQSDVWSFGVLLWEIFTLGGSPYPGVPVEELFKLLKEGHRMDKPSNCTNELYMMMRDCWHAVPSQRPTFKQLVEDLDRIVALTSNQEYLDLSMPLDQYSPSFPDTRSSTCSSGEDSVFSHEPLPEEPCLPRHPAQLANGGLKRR
Sequence of FGFR3 (SEQ ID NO: 5, amino acids 449-759) (P22607 449-759): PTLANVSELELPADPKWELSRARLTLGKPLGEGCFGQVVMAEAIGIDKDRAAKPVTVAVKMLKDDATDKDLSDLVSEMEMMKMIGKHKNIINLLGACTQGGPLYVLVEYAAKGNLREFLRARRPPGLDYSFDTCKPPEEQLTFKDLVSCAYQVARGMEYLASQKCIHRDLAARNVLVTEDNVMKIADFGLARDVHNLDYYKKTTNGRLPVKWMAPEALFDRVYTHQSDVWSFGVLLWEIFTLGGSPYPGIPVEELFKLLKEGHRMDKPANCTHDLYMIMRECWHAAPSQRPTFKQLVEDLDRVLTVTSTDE
Sequence of phosphorylated FGFR3 (SEQ ID NO: 5, amino acids 449 to 759) (P22607 449-759): as above
Sequence of HEK-293 cells transfected with dox-inducible human wild type FGFR2 (P21802 22-821): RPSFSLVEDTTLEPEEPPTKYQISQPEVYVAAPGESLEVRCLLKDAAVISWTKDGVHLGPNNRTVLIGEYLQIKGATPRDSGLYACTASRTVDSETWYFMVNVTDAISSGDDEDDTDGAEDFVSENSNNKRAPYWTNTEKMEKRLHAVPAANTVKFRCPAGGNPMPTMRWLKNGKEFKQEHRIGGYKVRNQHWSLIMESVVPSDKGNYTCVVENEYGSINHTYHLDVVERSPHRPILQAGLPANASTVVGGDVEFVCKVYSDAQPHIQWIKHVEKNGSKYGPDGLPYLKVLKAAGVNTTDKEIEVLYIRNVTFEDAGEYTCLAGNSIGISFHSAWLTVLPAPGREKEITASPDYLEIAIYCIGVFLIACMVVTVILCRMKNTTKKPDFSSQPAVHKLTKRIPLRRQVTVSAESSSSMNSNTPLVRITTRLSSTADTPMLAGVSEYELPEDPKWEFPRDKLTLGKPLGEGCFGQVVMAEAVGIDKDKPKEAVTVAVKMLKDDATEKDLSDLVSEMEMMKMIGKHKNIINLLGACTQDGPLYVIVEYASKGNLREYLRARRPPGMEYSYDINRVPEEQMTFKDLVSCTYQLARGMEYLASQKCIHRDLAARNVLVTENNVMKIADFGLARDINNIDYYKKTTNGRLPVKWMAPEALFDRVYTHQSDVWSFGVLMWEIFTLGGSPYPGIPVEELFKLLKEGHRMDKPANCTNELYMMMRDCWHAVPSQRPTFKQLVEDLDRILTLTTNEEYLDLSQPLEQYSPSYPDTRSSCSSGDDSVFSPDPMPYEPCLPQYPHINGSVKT
Sequence of recombinant human FGFR3 (amino acids R397-T806) (P22607 397-806): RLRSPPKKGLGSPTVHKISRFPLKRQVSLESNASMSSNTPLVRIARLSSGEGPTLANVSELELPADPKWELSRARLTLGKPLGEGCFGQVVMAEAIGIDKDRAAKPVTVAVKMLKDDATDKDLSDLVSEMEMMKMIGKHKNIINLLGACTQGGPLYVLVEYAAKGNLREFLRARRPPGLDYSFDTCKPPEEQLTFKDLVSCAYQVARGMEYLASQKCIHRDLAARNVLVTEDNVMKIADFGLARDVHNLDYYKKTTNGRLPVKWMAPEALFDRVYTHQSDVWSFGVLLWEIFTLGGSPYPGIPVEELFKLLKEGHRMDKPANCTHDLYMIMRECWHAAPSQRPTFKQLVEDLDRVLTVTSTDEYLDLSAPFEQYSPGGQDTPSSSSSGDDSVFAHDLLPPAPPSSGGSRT

Take `C=CC(=O)N1CC(OC)(C(=O)N2CCC(n3ncc(-c4cc(OC)c5c(Cl)cnn5c4)c3C)CC2)C1` [Example 117, 1-(3-(4-(4-(3-chloro-4-methoxypyrazolo[1,5-a]pyridin-6-yl)-5-methyl-1H-pyrazol-1-yl)piperidine-1-carbonyl)-3-methoxyazetidin-1-yl)prop-2-en-1-one]: the negative-log IC50 (pIC50) in experiment [1] was 6.10; in experiment [3] it was 7.72; in experiment [4], 6.55; in experiment [5], 7.37. Also, the “FGFR3 Enz kobs” value in experiment [2] was determined as 0.03885 min⁻¹.
For the compound `COc1cc(-c2cnn(C3CCN(CC4(OC)CN(C(=O)/C=C/CN(C)C)C4)CC3)c2C)cn2ncc(C#N)c12` [Example 159, (E)-6-(1-(1-((1-(4-(dimethylamino)but-2-enoyl)-3-methoxyazetidin-3-yl)methyl)piperidin-4-yl)-5-methyl-1H-pyrazol-4-yl)-4-methoxypyrazolo [1,5-a]pyridine-3-carbonitrile], the pIC50 was 7.15 in experiment [1], 8.52 in experiment [3], 6.35 in experiment [4] and 8.00 in experiment [5]. For the same compound, in experiment [2], the “FGFR3 Enz kobs” value turned out to be 0.0605 min⁻¹.
Regarding `C=CC(=O)N1CCC(n2cc(-c3cc(OC)c4c(C#N)cnn4c3)cn2)CC1` [Example 11, 6-(1-(1-acryloylpiperidin-4-yl)-1H-pyrazol-4-yl)-4-methoxypyrazolo[1,5-a]pyridine-3-carbonitrile], the pIC50 in experiment [1] is 7.66; in experiment [3], 7.60; in experiment [4], 7.85; in experiment [5], 8.15. Also, the “FGFR3 Enz kobs” value in experiment [2] is 0.00206 min⁻¹.
On the same counts, the results for `COc1cc(-c2cnn(C3CCN(C(=O)C4(OC)CN(C(=O)/C=C/CN(C)C)C4)CC3)c2C)cn2ncc(Cl)c12` [Example 171, (E)-1-(3-(4-(4-(3-chloro-4-methoxypyrazolo [1,5-a]pyridin-6-yl)-5-methyl-1H-pyrazol-1-yl)piperidine-1-carbonyl)-3-methoxyazetidin-1-yl)-4-(dimethylamino)but-2-en-1-one] are 6.95, 8.30, 6.58, 7.62 and 0.0804 min⁻¹.
As for `C=CC(=O)N1CC(CN2CCC(n3ncc(-c4cc(OC)c5c(Cl)cnn5c4)c3C)CC2)C1` [Example 118, 1-(3-((4-(4-(3-chloro-4-methoxypyrazolo[1,5-a]pyridin-6-yl)-5-methyl-1H-pyrazol-1-yl)piperidin-1-yl)methyl)azetidin-1-yl)prop-2-en-1-one], the pIC50 is 6.26 in experiment [1], 8.05 in experiment [3], 6.57 in experiment [4] and 7.39 in experiment [5]. In addition, the “FGFR3 Enz kobs” value in experiment [2] stood at 0.02502 min⁻¹.
For `C=CC(=O)Nc1ccc(CN2CCC(n3cc(-c4cc(OC)c5c(C#N)cnn5c4)cn3)CC2)cc1` [Example 9, N-(4-((4-(4-(3-cyano-4-methoxypyrazolo[1,5-a]pyridin-6-yl)-1H-pyrazol-1-yl)piperidin-1-yl)methyl)phenyl)acrylamide] the same measures were 7.49, 8.30, 7.43, 8.40 and 0.02298 min⁻¹.
`C=CC(=O)N1CC(C(=O)N2C[C@@H]3C[C@H]2CN3c2ccc(-c3cc(OC)c4c(C#N)cnn4c3)cn2)C1` [Example 106, 6-(6-((1S,4S)-5-(1-acryloylazetidine-3-carbonyl)-2,5-diazabicyclo[2.2.1]heptan-2-yl)pyridin-3-yl)-4-methoxypyrazolo[1,5-a]pyridine-3-carbonitrile]: the pIC50 is 7.21 in experiment [1], 8.05 in experiment [3], 5.92 in experiment [4] and 7.60 in experiment [5]. In addition, the “FGFR3 Enz kobs” value in experiment [2] came out at 0.01259 min⁻¹.
